In patent publication US4803197A, “2,1-benzothiazepine-2,2-dioxide-5-carboxylic acid derivatives” (Ciba-Geigy Corporation, priority 1987, dated 1989):

What was measured:
[1] = system: bovine nasal cartilage; assay: bovine nasal cartilage-synovium co-culture model of cartilage matrix degradation; assay type: cell-based; settings: at a concentration of about 1×10^-5 M
Experimental: The inhibition of cartilage matrix degradation can be determined in vitro in the bovine nasal cartilage-synovium co-culture model of cartilage matrix degradation which is carried out as follows:
The proteoglycan matrix of bovine nasal septum cartilage is labeled in vitro by incorporation of ^35 S into glycosaminoglycan. Cartilage slices are incubated overnight in a sulfate free medium containing ^35 S-sodium sulfate. ^35 S-Labeled cartilage slices are co-cultured with normal synovium explants in multiwell tissue culture plates. After 4 days incubation a 100μl aliquot of medium is counted. Cartilage slices are hydrolyzed and a 100μl aliquot of cartilage hydrolysate is counted. The percent ^35 S released into the medium is determined and the percent inhibition of matrix degradation is calculated.

[2] = system: accumulation of neutrophils; assay: accumulation of neutrophils into carrageenin-impregnated polyurethane sponges in the rat; assay type: in vivo; settings: 25 mg/Kg p.o.
Source text: The inhibition of the chemotactic activation of neutrophils can also be determined in vivo by measuring the inhibition of the accumulation of neutrophils into carrageenin impregnated polyurethane sponges after oral administration in the rat.

[3] = system: carrageenin pleurisy; assay: carrageenin-induced pleurisy model of inflammation in the rat; assay type: in vivo; settings: 10 mg/Kg p.o.
Experimental: Antiinflammatory activity is determined by measuring the inhibition of the edema and of the mononuclear cell influx after oral administration in the rat model in which pleurisy is first induced by injecting carrageenin into the pleural cavity, e.g. according to A. P. Almeida et al., J. Pharmacol. Exp. Therap. 214, 74 (1980).

[4] = system: leukotriene and 5-HETE formation; assay: leukotriene and 5-HETE formation in whole blood after oral administration in rats; assay type: in vivo; settings: 50 mg/Kg p.o.
Experimental: Furthermore inhibition of the formation of leukotrienes and 5-HETE is determined e.g. by measuring their concentration in whole blood after oral administration in rats.

[5] = system: bovine nasal cartilage; assay: synovial catabolin-induced degradation of bovine nasal cartilage; assay type: cell-based; settings: at a concentration of about 1×10^-5 M
Source text: The inhibition of cartilage matrix degradation can also be similarly determined by measuring the decrease in proteoglycan release on synovial catabolin-induced degradation of bovine nasal cartilage.

[6] = system: human neutrophils; assay: inhibition of binding of f-MLP to human neutrophils in vitro; settings: at a concentration of about 1×10^-6 M; sodium salt
Experimental: The inhibition of the chemotactic activation of neutrophils is determined in vitro, e.g. by measuring the inhibition of the binding of f-MLP (formyl-methionylleucyl-phenylalanine) to human neutrophils in vitro as follows:
Human neutrophils are isolated by a modification of the procedure of Ferrante and Thong (J. Immunol. Methods 24:389, 1978). Red cells remaining in the neutrophil preparation are lysed by separate treatments with 0.83% NH4 Cl and 0.1M tris-HCl, pH 7.5. Neutrophils are incubated in Hanks' buffer at 0° C. for 60 minutes with 15 nM ^3 H-f-MLP and test compound. Aliquots of the incubates are filtered and total ^3 H-f-MLP bound is measured. Non-specific binding in the presence of excess non-radioactive f-MLP is substracted, and percent inhibition of binding by the test drug is calculated. Final concentrations of solvents such as dimethylacetamide or ethanol which may be used to dissolve the test compound cannot exceed 1% in the incubation mixture.

O=C(Nc1ccc(Cl)cc1)C1=C(O)CS(=O)(=O)N(Cc2ccc(Cl)cc2)c2ccccc21.[Na] [Example 2, N-(4-chlorophenyl)-1-(4-chlorophenylmethyl)-1,3-dihydro-4-hydroxy-2,1-benzothiazepine-5-carboxamide-2,2-dioxide sodium salt]
inhibition of release of proteoglycan in synovium-induced degradation of cartilage [1]: inhibits | accumulation of neutrophils into carrageenin-impregnated sponges [2]: effectively diminishes | inhibition of edema formation in the pleurisy model of inflammation [3]: significantly inhibits | inhibition of mononuclear cell influx in the pleurisy model of inflammation [3]: significantly inhibits | inhibition of 5-HETE formation in whole rat blood [4]: effectively inhibits | inhibition of leukotriene formation in whole rat blood [4]: effectively inhibits | inhibition of release of proteoglycan in catabolin-induced degradation of cartilage [5]: inhibits | inhibition of the binding of f-MLP to human neutrophils [6]: effective in inhibiting
